Laboratory results: patent publication US10544095B2 (Pfizer Inc., priority 2015, dated 2020)

These compounds were tested against hTDO2 in human glioblastoma A172 cells (Homo sapiens (Human), UniProt P48775) (assay: Cellular assay for TDO2 activity determination in A172 cells). Conditions: overnight incubation, kynurenine absorbance at 480 nm.
Type: cell-based
How it was run: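 Glioblastoma A172 cells with endogenous hTDO2, 1.25×10^4 cells/well, incubated overnight at 37° C. with ten serial compound concentrations in IMDM with 2% FBS. Supernatant kynurenine, after TCA precipitation and 4-(dimethylamino)-benzaldehyde reaction, read at 480 nm against kynurenine standard curve; data curve-fitted.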

Sequence of hTDO2 in human glioblastoma A172 cells (P48775 whole entry): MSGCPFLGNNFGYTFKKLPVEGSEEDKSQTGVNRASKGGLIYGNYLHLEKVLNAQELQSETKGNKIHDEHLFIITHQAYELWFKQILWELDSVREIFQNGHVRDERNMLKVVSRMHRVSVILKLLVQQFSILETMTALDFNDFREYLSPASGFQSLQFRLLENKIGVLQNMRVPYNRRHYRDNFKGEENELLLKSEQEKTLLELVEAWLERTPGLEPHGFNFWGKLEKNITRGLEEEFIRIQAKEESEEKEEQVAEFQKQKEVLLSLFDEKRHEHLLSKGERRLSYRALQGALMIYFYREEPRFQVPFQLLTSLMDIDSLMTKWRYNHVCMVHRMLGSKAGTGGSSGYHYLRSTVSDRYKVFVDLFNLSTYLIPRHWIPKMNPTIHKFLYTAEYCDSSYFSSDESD

| IC50 [nM] | SMILES |
| --- | --- |
| 7100 | CNC(=O)c1cc(-c2c[nH]c3cc(F)ccc23)ccc1S(=O)(=O)N1CCNCC1 [Example 57, 5-(6-fluoro-1H-indol-3-yl)-N-methyl-2-(piperazin-1-ylsulfonyl)-benzamide] |
| 919 | N[C@H]1CN(C(=O)CCNS(=O)(=O)c2ccc(-c3c[nH]c4cc(F)ccc34)cc2)C[C@H]1F (single isomer, unassigned) [Example 173] |
| 125 | O=S(=O)(c1ccc(-c2c[nH]c3cc(F)ccc23)cc1)N1C[C@H](O)[C@@H](O)[C@@H]1CO [Example 134, (2S,3S,4S)-1-((4-(6-fluoro-1H-indol-3-yl)phenyl)sulfonyl)-2-(hydroxymethyl) pyrrolidine-3,4-diol] |
| 220 | O=S(=O)(NC1CCOCC1)c1ccc(-c2c[nH]c3cc(F)ccc23)cc1 [Example 46, 4-(6-fluoro-1H-indol-3-yl)-N-(tetrahydro-pyran-4-yl)-benzenesulfonamide] |
| 600 | O=S(=O)(c1ccc(-c2c[nH]c3cc(F)ccc23)c(F)c1)N1CCNCC1 [Example 22, 6-fluoro-3-(2-fluoro-4-(piperazin-1-ylsulfonyl)-phenyl)-1H-indole] |
| 250 | N[C@@H]1CN(S(=O)(=O)c2ccc(-c3c[nH]c4cc(F)ccc34)cc2)C[C@H]1F [Example 82, (3R,4R)-4-fluoro-1-{[4-(6-fluoro-1H-indol-3-yl)phenyl]sulfonyl}pyrrolidin-3-amine] |
| 240 | O=C(CCNS(=O)(=O)c1ccc(-c2c[nH]c3cc(F)ccc23)cc1)N[C@H]1CCOC1 [Example 104, (−)-(S)-3-(4-(6-fluoro-1H-indol-3-yl)phenylsulfonamido)-N-(tetrahydrofuran-3-yl)propanamide] |
| 580 | CC(=O)n1cc(-c2ccc(S(=O)(=O)N3CCNCC3)cc2)c2ccc(F)cc21 [Example 70, 1-(6-fluoro-3-(4-(piperazin-1-ylsulfonyl)phenyl)-1H-indol-1-yl)ethanone] |
| 55 | NS(=O)(=O)c1ccc(-c2c[nH]c3cc(F)ccc23)cc1CO [Example 176, 4-(6-fluoro-1H-indol-3-yl)-2-(hydroxymethyl)benzenesulfonamide] |
| 92000 | C[C@]1(O)CCN(S(=O)(=O)c2ccc(-c3c[nH]c4cc(F)ccc34)cc2)C1 [Example 116, (S)-1-((4-(6-fluoro-1H-indol-3-yl)phenyl)sulfonyl)-3-methylpyrrolidin-3-ol] |
| 66 | O=S(=O)(NCCO)c1ccc(-c2c[nH]c3cc(F)ccc23)cc1 [Example 157, 4-(6-fluoro-1H-indol-3-yl)-N-(2-hydroxyethyl)-benzenesulfonamide] |
| 160 | O=C(CCNS(=O)(=O)c1ccc(-c2c[nH]c3cc(F)ccc23)cc1)N[C@@H]1CCOC1 [Example 107, (+)-(R)-3-(4-(6-fluoro-1H-indol-3-yl)phenylsulfonamido)-N-(tetrahydrofuran-3-yl)propanamide] |
| 2500 | NCCNS(=O)(=O)c1cc(Cl)cc(-c2c[nH]c3cc(F)ccc23)c1 [Example 38, N-(2-aminoethyl)-3-chloro-5-(6-fluoro-1H-indol-3-yl)-benzenesulfonamide] |
| 210 | NC(=O)CCCNS(=O)(=O)c1ccc(-c2c[nH]c3cc(F)ccc23)cc1 [Example 53, 4-(4-(6-fluoro-1H-indol-3-yl)phenylsulfonamido)butanamide] |
| 150 | O=S(=O)(NCc1ncon1)c1ccc(-c2c[nH]c3cc(F)ccc23)cc1 [Example 156, N-((1,2,4-oxadiazol-3-yl)methyl)-4-(6-fluoro-1H-indol-3-yl)benzenesulfonamide] |
| 1700 | CC(C)CC(=O)n1cc(-c2ccc(S(=O)(=O)N3CCNCC3)cc2)c2ccc(F)cc21 [Example 52, 1-(6-fluoro-3-(4-(piperazin-1-ylsulfonyl)phenyl)-1H-indol-1-yl)-3-methylbutan-1-one] |
| 550 | CNC(=O)Cc1cc(-c2c[nH]c3cc(F)ccc23)ccc1S(N)(=O)=O [Example 143, 2-(5-(6-fluoro-1H-indol-3-yl)-2-sulfamoylphenyl)-N-methylacetamide] |
